Experimental data as given in patent US20250296942A1, “Phosphonate-Based Coordination Complexes and Methods of Preparation and Use Thereof” (University of Puerto Rico, priority 2021, published 2025).

Columns and labels:
[1] = Release of letrozole from drug-loaded BPBPA-Ca in FaSSGF; type: physicochemical
Protocol: (§1) LET release curve from BPBPA-Ca. The release curve of LET from BPBPA-Ca was determined in FaSSGF. About 100 mL of FaSSGF were placed in a 250-mL beaker and left in constant stirring at 37° C. (150 rpm). To record the first time point (0 h), an aliquot (1 mL) was taken out before adding the drug-loaded BPBPA-Ca. Subsequently, about 20 mg of powdered drug-loaded BPBPA-Ca (experimental) were placed into the FaSSGF solution. After each time point (0, 1, 3, 6, 24, 48, and 72 h), an aliquot (1 mL) was taken out and diluted in a 5 mL volumetric flask. Once the experiment was completed, the absorbance was measured at 238 nm to determine the amount (%) of LET release from the BPBPA-Ca. The release curve of LET (control) in FaSSGF was determined for comparison. This experiment was accomplished in duplicate.
Furthermore, the release of LET from the drug-loaded BPBPA-Ca was investigated in FaSSGF (pH=1.60) at 37° C. The LET released from BPBPA-Ca was quantified by measuring the increase in the LET concentration over time of the supernatant at the lambda max (λmax=238 nm). It was noticed that the drug-loaded BPBPA-Ca reaches a maximum release of LET ([…]) at 24 h (FIG. 91B). […] These findings confirm that BPBPA-Ca can be degraded in acidic conditions and release its cargo (LET) in a controlled and pH-dependent manner.
as §1, with “Release experiment.” for “LET release curve from BPBPA-Ca.”, “performed” for “accomplished”, “duplicate. FIG. 150 depicts the release curve of LET from the BPBPA-Ca channels.” for “duplicate.”

[2] = tested on: human breast cancer MCF-7 cell line; test: AlamarBlue cytotoxicity, BPBPA series, MCF-7; type: cell-based
Protocol: Cell culture methods. MCF-7, MDA-MB-231, and hFOB 1.19 cell lines were incubated employing DMEM (37° C.) and DMEM: F12 (34° C.) medium, respectively, in a 5% CO2. Cell lines were supplemented using 10% FBS and 1% Pen-Strep and medium exchange was performed twice a week. Cell passages were carried out at 80% confluency.
Cell-based assays. Cell lines were seeded in 96 well plates at a density of 5×10^3 cells/mL, cells were incubated for 24 h before treatment. Both cell lines were treated with 100 μL of BPBPA (0-400 μM), LET (0-200 μM), unloaded and loaded nano-Ca@BPBPA (0-50 μM). All cell-based assays were performed for 24, 48, and 72 h of treatment. Control groups were treated with media (DMEM or DMEM: F12) supplemented with 1% Pen-Strep. Then, the media was removed and replaced with 100 μL of 10% AlamarBlue® solution. The 96 well plates were incubated for 4 h before measurements. Then, the fluorescence was assessed at 560 nm of excitation and λmax 590 nm of emission. The cell viability (%) was evaluated by contrasting the percentage of live cells of the control groups with the cells treated with BPBPA, LET, unloaded and loaded nano-Ca@BPBPA. The half-maximal inhibitory concentration (IC50) was determined for BPBPA and letrozole employing the dose-response curves (% cell live vs. concentration). The relative cell live (% RCL) was assessed for the unloaded and loaded nano-Ca@BPBPA, utilizing LET as a control group. The IC50 and % RCL were plotted using the GraphPad Prism software vs. 9.3.0.
The cytotoxicity of BPBPA (control), LET (control), nano-Ca@BPBPA (control), and drug-loaded nano-Ca@BPBPA (experimental) was investigated employing the human breast cancer, MCF-7 and MDA-MB-231, and the human osteoblast, hFOB 1.19, cell lines. The human MCF-7 cell line represents an ER-positive breast cancer model with estrogen, progesterone, and glucocorticoid receptors.^1 While, the human MDA-MB-231 cells correspond to a model of ER-negative breast cancer. Both selected cancer cell lines can be implicated in the development and progress of bone metastases in patients.^40,41 The human fetal hFOB 1.19 cells represent a homogeneous osteoblast-like (non-cancerous) model commonly employed to assess osteoblast differentiation.^42 The cytotoxicity of these materials was evaluated by determining the IC50 and % RCL. […] Similar results were found for MDA-MB-231 and hFOB 1.19 cell lines treated with LET (IC50 >200 μM) at the same time points (Supporting Information).
Cell culture methods. MCF-7 and MDA-MB-231 were incubated employing DMEM media at 37° C. in 5% CO2. The hFOB 1.19 cell lines were incubated using DMEM: F12 at 34° C. in 5% CO2. Cell lines were supplemented using 10% FBS and 1% Pen-Strep. The media was exchanged twice per week. Cell passages were carried out at 80% confluency.
Seeding. Cell lines were seeded in 96 well plates at a density of […] cells/mL; cells were incubated for 24 h before each treatment.
Treatment. Cell lines were treated with 100 μL of BPBPA (0-400 μM), LET (0-200 μM), unloaded and loaded nano-Ca@BPBPA (0.5-50 μM). Control groups were treated with media (DMEM or DMEM: F12) supplemented with 1% Pen-Strep. All cell-based assays were performed after 24, 48, and 72 h of treatment and in triplicate.
AlamarBlue@assay. To determine the cell viability, the media was removed and replaced with 100 μL of 10% AlamarBlue® solution. The 96 well plates were incubated for 4 h before measurements. Then, the fluorescence was assessed at 560 nm of excitation and λmax 590 nm of emission.

[3] = FaSSGF pH 1.60

Compound | LET released (mean) ([1]; FaSSGF pH 1.60, 37 °C, 1 h) [%] | LET released (mean) ([1]; FaSSGF, 3 h) [%] | LET released (mean) ([1]; FaSSGF, 6 h) [%] | LET released (mean) ([1]; FaSSGF, 24 h) [%] | LET released (mean) ([1]; FaSSGF, 48 h) [%] | LET released (mean) ([1]; FaSSGF, 72 h) [%] | % RCL ([2]; 0.5 μM, 24 h) [%] | % RCL ([2]; 0.5 μM, 48 h) [%] | % RCL ([2]; 0.5 μM, 72 h) [%] | % RCL ([2]; 1.6 μM, 72 h) [%] | % RCL ([2]; 3.1 μM, 24 h) [%] | % RCL ([2]; 3.1 μM, 48 h) [%] | % RCL ([2]; 3.1 μM, 72 h) [%] | % RCL ([2]; 6.3 μM, 24 h) [%] | % RCL ([2]; 6.3 μM, 72 h) [%] | % RCL ([2]; 12.5 μM, 72 h) [%] | IC50 ([2]; Homo sapiens, MCF7, 72 h) [µM] | time to reach maximum dissolution [3] [min]
N#Cc1ccc(C(c2ccc(C#N)cc2)n2cncn2)cc1 [LET, letrozole] | 65 | 72 | 75 | 93 | 94 | 94 | ~100 | ~100 | 88±5 | 81 | 99±2 | 86±3 | 78±1 | 99±1 | 75±3 | 70±1 | ~20 | –
O=P(O)(O)C(O)(Cc1cccnc1)P(=O)(O)O [RISE, Monosodium risedronate hemipentahydrate] | – | – | – | – | – | – | – | – | – | – | – | – | – | – | – | – | – | 1
